Assay: gradient 5% acetonitrile 3 min, to 50% in 2 min, to 85% in 15 min, held 3 min, 100 µL/min
Conditions: column: Zorbax Extend-C18 2.1 x 50 mm; eluents: water / acetonitrile, 0.1% formic acid
Summary of the method: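 Retention times of pure standards were taken from adduct peaks that were selected by computer and manually inspected. Over 3 months, mixtures of ~100 molecules were run by HPLC–quadrupole time-of-flight mass spectrometry in positive and negative ionization mode. The Zorbax Extend-C18 column (2.1 × 50 mm, 1.8 μm) ran at 100 μL/min in water and acetonitrile, each containing 0.1% formic acid, with 40 μL dead volume and 900 μL dwell volume.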

Row | SMILES | RP-LC retention time [s]
1 | CC1CCN(C(=O)C2CCCN(C(=O)c3nnc(C(=O)Nc4ccc(F)cc4)s3)C2)CC1 (configuration not stated) | 661
2 | CCCCNc1onc(-c2ccc(F)cc2)c1C(=O)OC | 1130
3 | Cc1ccn(CC(=O)N2CC(n3cc(COc4ccc(F)cc4)nn3)C2)n1 | 716
4 | CC(C)(NC(=O)c1cc(Cl)c2ccccc2c1O)C(=O)O | 1010
5 | Cc1cc(C)c(C(=O)N2CCC(CC(=O)NCCCN3CCCC3)CC2)[nH]1 | 586
6 | COCc1cc(=O)n(CC(=O)Nc2cc(OC)c(OC)c(OC)c2)c(N2CCOCC2)n1 | 734
7 | Cn1nc(CNC(=O)c2ccc(Br)cc2)c2ccccc21 | 840
8 | O=c1ccc(-c2ccccc2)nn1CCc1nc(-c2ccncc2)no1 | 727
9 | NS(=O)(=O)c1ccc(NS(=O)(=O)c2cc(-c3noc(C4CCCC4)n3)cs2)cc1 | 882
10 | CCn1nc(CNC(=O)c2ccc(F)c(F)c2)c2ccccc21 | 896
11 | Cc1noc(-c2cccc(OC3CN(C(=O)c4cccc5[nH]ccc45)C3)c2)n1 | 824
12 | O=C(Cc1ccccc1F)N1CCC(Nc2ncnc3c2CCC3)C1 (configuration not stated) | 599
13 | Cn1c(N2CCC(C(=O)N3CCN(c4cccc(C(F)(F)F)c4)CC3)CC2)cc(=O)n(C)c1=O | 814
14 | Brc1cccc(-c2noc(CSc3nccn3-c3ccccc3)n2)c1 | 1020
15 | CCc1ccc(Oc2cc(N3CCC(C(=O)NCCCOC(C)C)CC3)ncn2)cc1 | 903
16 | COCCCNC(=O)Cn1cnc2onc(-c3ccc(Cl)cc3)c2c1=O | 792
17 | COc1ccc(OC)c(NC(=O)C(=O)c2cccn2C)c1 | 1000
18 | COc1ccccc1NC(=O)C1CCN(S(=O)(=O)c2cn(C(C)C)cn2)CC1 | 757
19 | Clc1ccc(CCCOCCCN2CCCCC2)cc1 | 744

Row | SMILES | RP-LC retention time [s]
20 | Cc1ccccc1N1CCN(c2nccn3nc(-c4ccccc4)cc23)CC1 | 1300
21 | O=C(NCC(=O)N1CCN(c2ccccn2)CC1)c1cc2ccccc2[nH]1 | 600
22 | Cc1c(Cl)cccc1NC(=O)NC1CCN(c2cc(N3CCCC3)cnn2)C1 (configuration not stated) | 668
23 | Nc1ccc2c(c1Cl)C(=O)c1ccc(N)c(Cl)c1C2=O | 854
24 | COC(=O)c1c(C)[nH]c(C(=O)N2CCCC(C(=O)N3CCN(c4cc(C)ccc4C)CC3)C2)c1C (configuration not stated) | 961
25 | CN1C(=O)c2cc(S(=O)(=O)Nc3ccc4c(c3)OCO4)ccc2Oc2cccnc21 | 850
26 | O=C(NCc1cccc(Cl)c1)C1CCN(c2nnc(-c3ccccc3)o2)CC1 | 865
27 | Cc1ccc(NC(=O)Cn2c(N3CCOCC3)nc(C)cc2=O)cc1 | 680
28 | CNC(=O)[C@@H]1C[C@H](Oc2cccnc2)CN1C(=O)c1ccc2ncccc2c1 | 510
29 | Cc1nnc(NC(=O)CCc2csc(NC(=O)NC3CCCCC3)n2)s1 | 682
30 | Cc1cccc(CNC(=O)c2c(C)sc3ccn(C)c(=O)c23)c1 | 787
31 | Cn1nc(-c2nc(C3CC3)no2)c2c1CCN(S(=O)(=O)c1ccccc1Cl)C2 | 952
32 | CC(=O)N1CCC2(CC1)N(CC1CC1)C(=O)CS2=O (configuration not stated) | 565
33 | COc1ccc(OCc2noc(CNC(=O)C3CC(=O)N(c4ccccc4)C3)n2)cc1 (configuration not stated) | 736
34 | CN1C(=O)C(C)(C(=O)Nc2cccc(Cl)c2)Oc2cccnc21 (configuration not stated) | 889
35 | CCC(C)NC(=O)CSc1nccc(N2CCN(c3cc(C)ccc3C)CC2)n1 (configuration not stated) | 873
36 | COC(=O)c1ccc2c(=O)n(-c3cccc(Cl)c3)c(N3CCSC3)nc2c1 | 1110
37 | CCOc1ccc(-c2cc3c(=O)n(Cc4nc(-c5ccc(C)cc5)no4)ccn3n2)cc1 | 1160

Source: the METLIN SMRT retention time set (Domingo-Almenara et al. 2019)
